Experimental data published in patent US4125610A, “Antibacterial compositions” (priority 1977, dated 1978).
Converted amounts (≈) assume the structure as drawn. Like-named read-outs stand apart in the source and are kept apart here.

Tests used:
[1] = tested on: P. mirabilis A9900; experiment: animal or person; format: in vivo, mice; details: Proteus mirabilis, A9900, in Mus musculus, po
[2] = tested on: S. pyogenes A9604; experiment: animal or person; format: in vivo, mice; details: Streptococcus pyogenes, A9604, in Mus musculus, po, read-out: PD50 /treatment
[3] = tested on: E. coli A15119; experiment: animal or person; format: in vivo, mice; details: Escherichia coli, A15119, in Mus musculus, po, read-out: PD50 /treatment
[4] = tested on: Pr. vulgaris; experiment: microbe, parasite or virus in culture; format: cell-based; details: for MIC: Proteus vulgaris
Protocol: (§1) The geometric mean MIC's were determined from MIC's obtained in two separate tests of each of the strains of Staphylococcus and Proteus, and three separate tests for each of the other organisms.

[5] = tested on: Staph. aureus; experiment: microbe, parasite or virus in culture; format: cell-based; details: Staphylococcus aureus, read-out: Geometric Mean MIC
Protocol: as §1

[6] = tested on: K. pneumoniae A9977; experiment: animal or person; format: in vivo, mice; details: Klebsiella pneumoniae, A9977, in Mus musculus, po, read-out: PD50 /treatment
[7] = tested on: A20119; experiment: Antibacterial activity, MIC by twofold broth dilution (Table 1), organism name not given; format: cell-based
Protocol: (§2) *The MIC's were determined by the twofold broth dilution method following
(§3) overnight incubation at 37° C in Meuller-Hinton Broth containing 2
(§4) lysed defibrinated horse blood and using 10^-4 dilutions of overnight
(§5) broth cultures (10^-3 dilutions of Staph. aureus strains A9606 and
(§6) A15097) as inocula at the rate of 0.5 ml of inoculum per 0.5 ml of […]

[8] = tested on: Pr. mirabilis; experiment: microbe, parasite or virus in culture; format: cell-based
Protocol: as §2, §3, §4, §5, §6

[9] = tested on: Staph. aureus; experiment: microbe, parasite or virus in culture; format: cell-based
Protocol: as §2, §3, §4, §5, §6

[10] = tested on: Plasmodium berghei; details: in vivo; cited from earlier work
[11] = tested on: Histoplasma capsulatum; details: mouse, in vivo, iv; cited from earlier work
[12] = tested on: experimental tuberculosis; details: cited from earlier work
[13] = tested on: experimental tuberculosis; details: cited from earlier work; remark: listed apart in the source
[14] = tested on: Ent. cloacae; experiment: microbe, parasite or virus in culture; format: cell-based; details: Enterobacter cloacae
Protocol: as §1

[15] = tested on: Pr. mirabilis; experiment: microbe, parasite or virus in culture; format: cell-based; details: Proteus mirabilis
Protocol: as §1

[16] = tested on: Pr. morganii; experiment: microbe, parasite or virus in culture; format: cell-based; details: Morganella morganii
Protocol: as §1

[17] = tested on: Pr. rettgeri; experiment: microbe, parasite or virus in culture; format: cell-based; details: Providencia rettgeri
Protocol: as §1

[18] = tested on: E. coli; experiment: microbe, parasite or virus in culture; format: cell-based; details: Escherichia coli
Protocol: as §1

[19] = tested on: Kl. pneumoniae; experiment: microbe, parasite or virus in culture; format: cell-based; details: Klebsiella pneumoniae
Protocol: as §1

[20] = tested on: S. aureus A9537; experiment: animal or person; format: in vivo, mice; details: Staphylococcus aureus, A9537, in Mus musculus, po
[21] = tested on: S. typhosa; details: in vivo; cited from earlier work
[22] = tested on: a variety of bacterial species; details: cited from earlier work
[23] = tested on: Ps. fluorescens; details: in vivo; cited from earlier work
[24] = laboratory animals, cited from earlier work
[25] = tested on: Ent. cloacae; experiment: microbe, parasite or virus in culture; format: cell-based; details: Enterobacter cloacae; remark: listed apart in the source
Protocol: as §2, §3, §4, §5, §6

[26] = tested on: Ps. aeruginosa; experiment: microbe, parasite or virus in culture; format: cell-based; details: Pseudomonas aeruginosa
Protocol: as §2, §3, §4, §5, §6

[27] = tested on: E. coli; experiment: microbe, parasite or virus in culture; format: cell-based; details: Escherichia coli; remark: listed apart in the source
Protocol: as §2, §3, §4, §5, §6

[28] = tested on: Kl. pneumoniae; experiment: microbe, parasite or virus in culture; format: cell-based; details: Klebsiella pneumoniae; remark: listed apart in the source
Protocol: as §2, §3, §4, §5, §6

COc1cc(Cc2cnc(N)nc2N)cc(OC)c1OC [T, 2,4-diamino-5-(3',4',5'-trimethoxybenzyl)pyrimidine]
ED50 ([1]; read-out: PD50 /treatment): > 200 mg/kg
ED50 [2]: > 400 mg/kg
ED50 ([3]; 3 h): 200 mg/kg
ED50 [3]: 262 mg/kg
Geometric Mean MIC [4]: 0.6 µg/mL
amount of component in 4 μg/ml of the 16:1 mixture [4]: 0.235 µg/mL
component in the 16:1 mixture at its MIC as % of its individual MIC [4]: 23%
MIC ([4]; read-out: Geometric Mean MIC): 1 µg/mL (≈ 3.44 µM)
MIC [5]: 0.5 µg/mL (≈ 1.72 µM)
ED50 ([6]; 54 h): 348 mg/kg
MIC [7]: 16 µg/mL (≈ 55.1 µM)
MIC [8]: 4 µg/mL (≈ 13.8 µM)
MIC ([8]; Proteus mirabilis): 2 µg/mL (≈ 6.89 µM)
MIC ([9]; Staphylococcus aureus): 0.25 µg/mL (≈ 0.861 µM)

Nc1ccc(P(=O)(O)O)cc1 [P, p-aminophenylphosphonic acid]
efficacy in infected mice [10]: effective in vivo
protective effect [11]: some protective effect
ED50 ([1]; read-out: PD50 /treatment, oral, mice, challenge 6×10^6, 0 and 2 hr post-challenge): > 200 mg/kg
ED50 ([1]; read-out: PD50 /treatment, oral, mice, challenge 8×10^6, 0 and 2 hr post-challenge (1st P. mirabilis line)): > 800 mg/kg
ED50 ([1]; read-out: PD50 /treatment, oral, mice, challenge 8×10^6, 0 and 2 hr post-challenge (3rd P. mirabilis line)): > 200 mg/kg
ED50 [2]: > 400 mg/kg
effect in vivo [12]: no effect in vivo
tubercularstatic activity in vitro [13]: good tubercularstatic activity in vitro
ED50 ([3]; 3 h): > 400 mg/kg
ED50 [3]: > 400 mg/kg
MIC ([14]; read-out: Geometric Mean MIC, 1 strain (1st Ent. cloacae line)): 8 µg/mL (≈ 46.2 µM)
MIC ([14]; read-out: Geometric Mean MIC, 1 strain (3rd Ent. cloacae line)): > 125 µg/mL
MIC ([14]; read-out: Geometric Mean MIC, 2 strains (4th Ent. cloacae line)): 63 µg/mL (≈ 364 µM)
MIC ([14]; read-out: Geometric Mean MIC, 3 strains (2nd Ent. cloacae line)): 20 µg/mL (≈ 116 µM)
MIC ([15]; read-out: Geometric Mean MIC, 1 strain (3rd Pr. mirabilis line)): 11.3 µg/mL (≈ 65.3 µM)
MIC ([15]; read-out: Geometric Mean MIC, 1 strain (4th Pr. mirabilis line)): 16 µg/mL (≈ 92.4 µM)
MIC ([15]; read-out: Geometric Mean MIC, 2 strains (2nd Pr. mirabilis line)): > 105 µg/mL
MIC ([15]; read-out: Geometric Mean MIC, 4 strains (1st Pr. mirabilis line)): 7.3 µg/mL (≈ 42.2 µM)
MIC ([16]; read-out: Geometric Mean MIC, 1 strain (1st Pr. morganii line)): > 125 µg/mL
MIC ([16]; read-out: Geometric Mean MIC, 2 strains (2nd Pr. morganii line)): 11.3 µg/mL (≈ 65.3 µM)
MIC ([4]; read-out: Geometric Mean MIC, 1 strain (first listed Pr. vulgaris)): > 125 µg/mL
MIC ([4]; read-out: Geometric Mean MIC, 2 strains (2nd Pr. vulgaris line)): 8 µg/mL (≈ 46.2 µM)
component in the 16:1 mixture at its MIC as % of its individual MIC ([4]; first listed strain of Pr. vulgaris): < 3.0%
amount of component in 4 μg/ml of the 16:1 mixture ([4]; first listed strain of Pr. vulgaris, 16:1 mixture at its MIC): 3.76 µg/mL
MIC ([17]; read-out: Geometric Mean MIC, 1 strain (1st Pr. rettgeri line)): 0.5 µg/mL (≈ 2.89 µM)
MIC ([17]; read-out: Geometric Mean MIC, 1 strain (2nd Pr. rettgeri line)): > 125 µg/mL
MIC ([18]; read-out: Geometric Mean MIC, 1 strain (1st E. coli line)): 6.4 µg/mL (≈ 37 µM)
MIC ([18]; read-out: Geometric Mean MIC, 2 strains (2nd E. coli line)): 18 µg/mL (≈ 104 µM)
MIC ([18]; read-out: Geometric Mean MIC, 2 strains (3rd E. coli line)): > 125 µg/mL
MIC ([18]; read-out: Geometric Mean MIC, 4 strains (4th E. coli line)): 20 µg/mL (≈ 116 µM)
MIC [5]: > 109 µg/mL
MIC ([19]; read-out: Geometric Mean MIC, 1 strain (2nd Kl. pneumoniae line)): 40 µg/mL (≈ 231 µM)
MIC ([19]; read-out: Geometric Mean MIC, 1 strain (4th Kl. pneumoniae line)): > 125 µg/mL
MIC ([19]; read-out: Geometric Mean MIC, 2 strains (3rd Kl. pneumoniae line)): 40 µg/mL (≈ 231 µM)
MIC ([19]; read-out: Geometric Mean MIC, 5 strains (1st Kl. pneumoniae line)): 18 µg/mL (≈ 104 µM)
ED50 ([20]; read-out: PD50 /treatment): > 400 mg/kg
ED50 ([20]; read-out: PD50 /treatment, oral, mice, challenge 1×10^5, 0 and 4 hr post-challenge): > 100 mg/kg
efficacy in infected mice [21]: effective in vivo
ED50 ([6]; 54 h): > 400 mg/kg
ED50 [6]: > 400 mg/kg
MIC [7]: > 125 µg/mL
in vitro activity compared with sulfathiazole ([22]; molar basis): approached that of sulfathiazole
in vitro activity ([22]; relative to the compounds tested): generally the most active of the compounds tested
efficacy in infected mice [23]: effective in vivo
absorption ([24]; blood level studies): poor absorption
toxicity [24]: low toxicity
MIC ([25]; strain A-9656): > 125 µg/mL
MIC ([25]; strain A-9657): 63 µg/mL (≈ 364 µM)
MIC ([25]; strain A-9659): > 125 µg/mL
MIC ([26]; strain A15151): 1 µg/mL (≈ 5.78 µM)
MIC ([26]; strain A20126): 16 µg/mL (≈ 92.4 µM)
MIC ([26]; strain A20227): 1 µg/mL (≈ 5.78 µM)
MIC ([26]; strain A20229): 63 µg/mL (≈ 364 µM)
MIC ([26]; strain A20543): 16 µg/mL (≈ 92.4 µM)
MIC ([26]; strain A20574): 1 µg/mL (≈ 5.78 µM)
MIC ([26]; strain A20602): 125 µg/mL (≈ 722 µM)
MIC ([26]; strain A-9843a): 4 µg/mL (≈ 23.1 µM)
MIC ([26]; strain A-9925): 16 µg/mL (≈ 92.4 µM)
MIC ([8]; Proteus mirabilis): > 125 µg/mL
MIC ([8]; Proteus mirabilis, strain A-9696): > 125 µg/mL
MIC [27]: > 125 µg/mL
MIC ([27]; strain A15119): > 125 µg/mL
MIC ([27]; strain A-9671): > 125 µg/mL
MIC ([9]; Staphylococcus aureus): > 125 µg/mL
MIC ([9]; strain A15097, 10^-3 dilution inoculum): > 125 µg/mL
MIC ([9]; strain A-9606, 10^-3 dilution inoculum): > 125 µg/mL
MIC [28]: > 125 µg/mL
MIC ([28]; strain A15130): > 125 µg/mL
MIC ([28]; strain A20468): > 125 µg/mL
